Laboratory results published in patent US8367801B2, “Proteinaceous compounds” (Endocrine Pharmaceuticals Limited, priority 2008, dated 2013).
Ends that are not written are not given here.

How the values were obtained:
[1] = test system: Caenorhabditis elegans; assay type: in vivo; settings: for effect on lifespan / increase in fecundity (number of offspring): 1 μM in aqueous medium each day; for increase in fecundity (number of offspring): over lifespan
From the text: (For methodology see Davies, K. G & Hart, J. E, Nematology, 10, 103-112, 2008).
The first six amino acids of the micrin peptide fragment of SEQ ID NO: 9 are MKPLTG (SEQ ID NO: 26). These have been synthesized as a 6 mer. […] Thus the fecundity-enhancing effect is retained even if 8 of the 14 amino acids are removed, potentially identifying an active motif. To optimise this 6 mer further, amino acid substitutions have been made, while retaining the proline at position 3.

[2] = test system: human bone marrow stem cells; test: Human bone marrow stem cell proliferation in vitro; assay type: cell-based; settings: 1 μM in the medium, 24 h
Description: (§1) Micrin activity has been determined by means of a suitable in vitro assay, for example the breast cancer cell viability assay described above in Section 4 with reference to FIG. 4. A useful assay in support of molecular optimisation involves adult rat bone marrow stem cells in culture, with α-MEMS as cell medium and manual assessments of cell numbers and morphology using time-lapse video photography over 24 h. In one study, untreated control cells increased in number by 50%. An increase of just under 20% was also seen with the 14 mer peptide SEQ ID NO: 9, administered at 10 μg/ml of medium.
To investigate the stop growing aspect of the hypothesized micrin puberty signal, the proline-containing 6 mers have been administered to human bone marrow stem cells in an in vitro assay (see 6a), at a concentration in the medium of 1 μM.

[3] = test system: human dental pulp cells; test: Dental pulp cell proliferation (Cyquant); assay type: cell-based; settings: for anti-proliferative activity: 5 μM in the cell medium, seeding 5.0×10^3 cells/ml
[4] = test system: PC3 prostate cancer cells; test: Tumour cell viability, Alamar Blue; assay type: cell-based; settings: 48 hours; mean n = 3, SEMs < 5%; camptothecin at 3 μmol
Description: (§2) The effects of micrin on viability of tumour cells were determined using MCF7 breast cancer cells and PC3 prostate cancer cells. Cells were plated out to provide 2×10^4 cells in 2 cm^2 wells in Dulbecco's modified Eagles medium (DMEM) containing 10% foetal calf serum (FCS), antibiotics and a stabilised substitute for glutamine (Glutamax, Invitrogen UK). The cells were allowed to attach overnight. The medium was removed and the cells were washed several times with fresh medium, and then treated with test or control samples diluted in medium.
(§3) Test and control samples were produced according to an ion exchange method using 120 ml sheep ovarian follicular fluid as the starting material. Follicular fluid obtained by aspiration of abattoir-derived sheep ovaries was centrifuged at +4° C. and 2000 g for 10 minutes, then spun through Amicon Centriprep-30 cartridges at 1800 g to give a nominal 0-30 kD fraction. This fraction was spun through Amicon Centriprep-3 cartridges to give a nominal 3-30 kD sub-fraction. […]
(§4) Camptothecin, an inducer of apoptosis, was used as a positive control at 3 μmol. After 48 hours the medium was changed for fresh medium and the number of remaining viable cells was quantitated using Alamar Blue. The number of viable cells in the micrin and camptothecin samples were expressed as a percentage of the number of viable cells in the micrin-free control samples. […]

[5] = test system: MCF7 breast cancer cells; test: Tumour cell viability, Alamar Blue; assay type: cell-based, human; settings: 48 hours; mean n = 3, SEMs < 5%; camptothecin at 3 μmol
Description: as §2, §3, §4

[6] = test system: MCF 7 human breast cancer cells; test: IGF1-stimulated cell growth, Coulter counter; assay type: cell-based; settings: IGF1 50 ng/ml, 72 hours
Description: Experiments were conducted to assess the effects of a range of doses of the micrin peptide fragment with 20 amino acids (SEQ ID NO: 19) on the IGF1-stimulated growth of MCF 7 human breast cancer cells. Cells were plated at 2×10^4 per well in 2 cm^2 wells in Dulbecco's Modified Eagle's Medium containing 10% foetal calf serum, antibiotics and a stabilised substitute for glutamine (Glutamax, InVitrogen, UK). After an overnight culture period, the cells were washed with fresh medium and this was replaced with medium containing IGF1 (50 ng/ml) in the presence and absence of a range of concentrations (between 0.04 and 4000 nmol) of the peptide fragment in triplicate wells, and compared to triplicate wells containing medium only (with no supplementary IGF1) as controls. The cells were incubated for 72 hours in a humidified atmosphere at 37° C. under 5% carbon dioxide/95% air. The medium was discarded, and the cell layer washed with buffered saline before being incubated with trypsin/EDTA to dislodge the cells. The cell suspension was diluted with medium to stop the tryptic action and then transferred to tubes and subjected to centrifugation. The pellet was resuspended in Isoton and samples counted with a Coulter counter.

[7] = test system: adult rat bone marrow stem cells; test: Adult rat bone marrow stem cells in culture, cell numbers by time-lapse video over 24 h; assay type: cell-based
Description: Polyclonal antibodies were raised in the same manner using goats instead of rabbits, with Peptide 2 conjugated to KLH. The primary immunisation was followed by 8 boosters at monthly intervals, using standard techniques for the raising of polyclonal antibodies. Titre was established via immunohistochemistry, using rat and ovine median eminence tissue and the ability to block antibody with Peptide 1 was determined on histological sections. Specificity was tested using a range of hypothalamic peptides. […] 9, which consists of KVKEFNNI (SEQ ID NO. 21). Purification of the antibody using the peptide SEQ ID NO: 9 immobilised on a column enriches for antibody to the C-terminal epitope. The goat antibody has been used in connection with an assay based on adult rat bone marrow stem cells in culture, with α-MEMS as cell medium and manual assessments of cell numbers and morphology using time-lapse video photography over 24 h.
as §1

[8] = test system: compensatory renal growth; settings: procedures as in 7c; Haylor et al 2009; cited from earlier work
[9] = test system: ovine pituitary cells; test: LH secretion by pituitary cells in vitro; assay type: cell-based; settings: 24 h, 0.1-10 μg/L, dose dependent, vs scrambled peptide, data not shown
Description: Both effects are dependent on dose across the range used, 0.1-10 μg/L, and are statistically significant. Comparison was with a control peptide having the same amino acids in a randomly scrambled sequence (data not shown)

[10] = test system: ovine pituitary cells; test: Prolactin production by pituitary cells in vitro, RIA; assay type: cell-based
Description: Adult ewe pituitaries were collected into phosphate buffered saline (PBS) on ice. The external dura and neurohypophyseal tissue were removed and the remaining tissue was sliced thinly using tweezers and scalpel, and minced using crossed scalpel blades (<1 mm pieces). The mince was washed in 0.1% bovine serum albumen (BSA)/PBS. The tissue was allowed to settle and the liquid aspirated. The washing, settling and aspiration were repeated.
A standard cell dispersion was conducted by adding the tissue to a filtered solution of collagenase in BSA/PBS (0.02-0.03 g in 10 ml) plus Dnase, hyaluronidase, pancreatin and trypsin inhibitor and incubating in a shaking waterbath at 37° C. for 25 minutes. The resultant suspension was titurated with a pipette and returned to the shaking waterbath for 5 minutes. The suspension was titurated again and filtered through a mesh, washing with BSA/PBS. The suspension was added to a 50 ml centrifuge tube and spun at 1500 rpm for 5 minutes. The supernatant was removed and the cell pellet resuspended in 50 ml BSA/PBS.
A sample of the cell suspension (50 μl) was mixed 1:1 with trypan blue in a microcentrifuge tube and viable cells were counted on a haemocytometer, to give viable cell concentration.
The cell suspension was recentrifuged and resuspended in 3-5 ml of M199. […]

[11] = test system: Caenorhabditis elegans; settings: Davies & Hart, Nematology 2008; cited from earlier work
[12] = test system: human umbilical vascular endothelial cells (HUVECs); test: AngioKit angiogenesis assay, venule length; assay type: cell-based; settings: FIG. 6; suramin 20 μM; micrin sample T2
Description: Micrin and micrin free control samples were produced using the method described in Example 7.a with 120 ml sheep follicular fluid as the source material. These were diluted in AngioKit medium and stored at 4° C. for the duration of the assay. Samples were tested as follows: • 1) untreated control—medium alone • 2) positive control—medium containing 2 ng/ml VEGF • 3) negative control—medium containing 20 μM suramin (a potent inhibitor of angiogenesis) • 4) micrin-free control • 5) micrin test material
Comparison of venule length was conducted using the ‘Angiosys’ image analysis system developed specifically for the analysis of images produced using the AngioKit. Four images were taken from predetermined positions in the well containing each specimen. The results obtained with micrin are marked T2, those with micrin-free control T1.

For “fluorescently tagged version of the micrin peptide fragment: fluorescently tagged version of the micrin peptide fragment SEQ ID NO: 9 (MKPLTGKVKEFNNI; also: fluorescent tag, position not given here)”, the tissue accumulation ([1]; in vivo) was “accumulate preferentially in genital tissue”.
In the case of LEPVMT, the “ascending order of anti-proliferative activity” value (shortened to “ascending order”) [2] is reported as “IEPVFT (SEQ ID NO: 30)<MKPLTG (SEQ ID NO. 26)<LEPVMT (SEQ ID NO: 31)<LQPAHV (SEQ ID NO: 27)”.
In the case of LQPAHV, the effect on lifespan [1] is reported as “significantly to prolong lifespan”, the “increase in fecundity (number of offspring)” value (shortened to “increase in fecundity”) [1] is reported as 71% and the “ascending order” value [2] is reported as “IEPVFT (SEQ ID NO: 30)<MKPLTG (SEQ ID NO. 26)<LEPVMT (SEQ ID NO: 31)<LQPAHV (SEQ ID NO: 27)”. For the same compound, the “reduction of cell numbers” value [2] was “about 32%”.
In the case of KVKEFNNI, the anti-proliferative activity [3] is reported as “most anti-proliferative of all” and the “reduction of cell numbers” value ([3]; 5 μM, over 7 days) is reported as “about 17%”.
In the case of `CC[C@@]1(O)C(=O)OCc2c1cc1n(c2=O)Cc2cc3ccccc3nc2-1` [Camptothecin], the “Viability (% micrin-free control) PC3 (prostate cancer)” value [4] is reported as 43.9 % micrin-free control and the “Viability (% micrin-free control) MCF-7 (breast cancer)” value [5] is reported as 56.2 % micrin-free control.
In the case of IEPVFT, the effect on lifespan [1] is reported as “without having a significant effect on lifespan”, the “increase in fecundity” value [1] is reported as 79% and the “ascending order” value [2] is reported as “IEPVFT (SEQ ID NO: 30)<MKPLTG (SEQ ID NO. 26)<LEPVMT (SEQ ID NO: 31)<LQPAHV (SEQ ID NO: 27)”.
For MKPLTG, the anti-proliferative activity [3] was “minimally anti-proliferative”, the effect on lifespan [1] was “without altering lifespan” and the “increase in fecundity” value [1] was 50%. The “ascending order” value [2] was “IEPVFT (SEQ ID NO: 30)<MKPLTG (SEQ ID NO. 26)<LEPVMT (SEQ ID NO: 31)<LQPAHV (SEQ ID NO: 27)”.
For MKPLTGKVKEFNNIKGFGVI [SEQ ID NO: 19], the “cell count compared to IGF1 alone” value ([6]; 0.04 nmol peptide) was “noticably decreases the cell count”, the “cell count compared to controls” value ([6]; 40 nmol peptide) was “reduces the cell count to below that in the controls” and the “effect on IGF1-stimulated cell growth” value ([6]; 0.04-4000 nmol, FIG. 7) was “suppresses the effect of IGF1 in a dose-dependent manner”. For the same compound, the “reduction in cell numbers” value ([7]; 24 h, due to apoptosis) was “about 80%”.
For MKPLTGKVKEFNNI [SEQ ID NO: 9], the effect on lifespan [1] is given as “increased by about a fifth”, the “increase in fecundity” value [1] is given as > 40% and the “effect on compensatory renal growth” value [8] is given as “inhibits compensatory renal growth”. For the same compound, the LH production ([9]; cells provided with GnRH, GHRH and TRH) was “reduction in LH production”, the LH secretion ([9]; hypothalamic regulators omitted) was “increase the secretion of LH” and the “increase in cell number” value ([7]; 10 μg/ml of medium, 24 h, untreated control cells increased by 50%) was “under 20%”. For the same compound, the “effect of co-administration on the antibody's reduction of the negative influence” value ([7]; with goat antibody and rat hypothalamus extract) was “reversed by co-administration”, the “prolactin level in medium” value ([10]; Experiment 1: 1 ng/well, 24 hours, n=4, control 92.2±13.9) was 67.1 ± 12.6 ng/mL and the “prolactin level in medium” value ([10]; Experiment 2: 1 μg/ml, 2 hours, control 8.30±1.16, p<0.05) was 5.18 ± 1.52 ng/mL.
In the case of “1KPLTGKVKEFNNI [SEQ ID NO:1, 14 mer wherein 1 is S, D or M]”, the anti-proliferative activity [3] is reported as “more so”.
In the case of “KLKMNGKN (SEQ ID NO: 29) to the N-terminus of IEPVFT: IEPVFT with KLKMNGKN added to its N-terminus (KLKMNGKNIEPVFT)”, the effect on fecundity [11] is given as “anti-fecundity agent”.
With `Cc1ccc(C(=O)Nc2ccc(S(=O)(=O)O)c3cc(S(=O)(=O)O)cc(S(=O)(=O)O)c23)cc1NC(=O)c1cccc(NC(=O)Nc2cccc(C(=O)Nc3cc(C(=O)Nc4ccc(S(=O)(=O)O)c5cc(S(=O)(=O)O)cc(S(=O)(=O)O)c45)ccc3C)c2)c1` [Suramin, suramin] the HUVEC venule length [12] was “statistically significant decrease in HUVEC venule length”.
